{
  "source": "ChEMBL document CHEMBL4004867",
  "about": "“Novel antioxidants' synthesis and their anti-oxidative activity through activating Nrf2 signaling pathway” (2017)",
  "key": {"PC-12 [1]": {"tested_on": "PC-12", "assay": "Cytoprotective activity against H2O2-induced oxidative damage in rat PC12 cells assessed as viable cells at 10 uM preincubated for 24 hrs followed by H2O2 addition measured after 24 hrs by annexin V-FITC/propidium iodide staining-based flow cytometric method (reference value: 85.2%)", "format": "functional", "details": "read-out: Activity"}, "PC-12 [2]": {"tested_on": "PC-12", "assay": "Cytoprotective activity against H2O2-induced oxidative damage in rat PC12 cells assessed as early apoptotic cells at 10 uM preincubated for 24 hrs followed by H2O2 addition measured after 24 hrs by annexin V-FITC/propidium iodide staining-based flow cytometric method (reference value: 0.558%)", "format": "functional"}, "PC-12 [3]": {"tested_on": "PC-12", "assay": "Cytoprotective activity against H2O2-induced oxidative damage in rat PC12 cells assessed as necrotic cells at 10 uM preincubated for 24 hrs followed by H2O2 addition measured after 24 hrs by annexin V-FITC/propidium iodide staining-based flow cytometric method (reference value: 3.47%)", "format": "functional"}, "PC-12 [4]": {"tested_on": "PC-12", "assay": "Cytoprotective activity against H2O2-induced oxidative damage in rat PC12 cells assessed as late apoptotic cells at 10 uM preincubated for 24 hrs followed by annexin V-FITC/propidium iodide staining-based flow cytometric method (reference value: 10.7%)", "format": "functional"}, "PC-12 [5]": {"tested_on": "PC-12", "assay": "Cytoprotective activity against H2O2-induced oxidative damage in rat PC12 cells preincubated for 24 hrs followed by H2O2 addition measured after 24 hrs by annexin V-FITC/propidium iodide staining-based flow cytometric method", "format": "functional, cell-based"}, "PC-12 [6]": {"tested_on": "PC-12", "assay": "Cytoprotective activity against H2O2-induced oxidative damage in rat PC12 cells assessed as increase in cell viability preincubated for 24 hrs followed by H2O2 addition measured after 24 hrs by MTT assay", "format": "functional, cell-based"}, "[7]": {"target": "T1, Nuclear factor erythroid 2-related factor 2 (Rattus norvegicus) (UniProt O54968)", "T1 sequence (whole entry)": "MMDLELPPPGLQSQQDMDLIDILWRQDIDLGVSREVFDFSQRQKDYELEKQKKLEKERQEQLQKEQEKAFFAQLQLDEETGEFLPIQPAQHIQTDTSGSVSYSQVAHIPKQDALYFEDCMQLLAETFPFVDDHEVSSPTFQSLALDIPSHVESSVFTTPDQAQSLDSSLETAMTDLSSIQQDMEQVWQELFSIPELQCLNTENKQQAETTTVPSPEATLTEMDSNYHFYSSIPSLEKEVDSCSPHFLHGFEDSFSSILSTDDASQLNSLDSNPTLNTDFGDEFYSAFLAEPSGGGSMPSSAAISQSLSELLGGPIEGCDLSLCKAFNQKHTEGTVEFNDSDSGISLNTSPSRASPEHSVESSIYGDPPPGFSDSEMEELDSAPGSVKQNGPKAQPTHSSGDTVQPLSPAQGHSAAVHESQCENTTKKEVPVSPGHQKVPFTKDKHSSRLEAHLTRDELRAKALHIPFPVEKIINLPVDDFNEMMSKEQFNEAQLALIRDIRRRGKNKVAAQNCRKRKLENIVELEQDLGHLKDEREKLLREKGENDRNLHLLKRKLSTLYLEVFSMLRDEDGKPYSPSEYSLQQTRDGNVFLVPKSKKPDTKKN", "assay": "Induction of Nrf2 activity in rat PC12 cells assessed as upregulation of GCLC mRNA levels at 2.5 to 10 uM after 24 hrs by RT-PCR method", "format": "cell-based"}, "[8]": {"assay": "Antioxidant activity assessed as DPPH radical scavenging activity relative to edaravone", "format": "functional"}, "[9]": {"assay": "Antioxidant activity assessed as DPPH radical scavenging activity relative to tBHQ", "format": "functional"}, "PC-12 [10]": {"tested_on": "PC-12", "assay": "Cytoprotective activity against H2O2-induced oxidative damage in rat PC12 cells assessed as viable cells at 2.5 uM preincubated for 24 hrs followed by H2O2 addition measured after 24 hrs by annexin V-FITC/propidium iodide staining-based flow cytometric method (reference value: 85.2%)", "format": "functional", "details": "read-out: Activity"}, "PC-12 [11]": {"tested_on": "PC-12", "assay": "Cytoprotective activity against H2O2-induced oxidative damage in rat PC12 cells assessed as necrotic cells at 5 uM preincubated for 24 hrs followed by H2O2 addition measured after 24 hrs by annexin V-FITC/propidium iodide staining-based flow cytometric method (reference value: 3.47%)", "format": "functional"}, "PC-12 [12]": {"tested_on": "PC-12", "assay": "Cytoprotective activity against H2O2-induced oxidative damage in rat PC12 cells assessed as viable cells at 5 uM preincubated for 24 hrs followed by H2O2 addition measured after 24 hrs by annexin V-FITC/propidium iodide staining-based flow cytometric method (reference value: 85.2%)", "format": "functional", "details": "read-out: Activity"}, "PC-12 [13]": {"tested_on": "PC-12", "assay": "Cytoprotective activity against H2O2-induced oxidative damage in rat PC12 cells assessed as late apoptotic cells at 5 uM preincubated for 24 hrs followed by H2O2 addition measured after 24 hrs by annexin V-FITC/propidium iodide staining-based flow cytometric method (reference value: 10.7%)", "format": "functional"}, "PC-12 [14]": {"tested_on": "PC-12", "assay": "Cytoprotective activity against H2O2-induced oxidative damage in rat PC12 cells assessed as necrotic cells at 2.5 uM preincubated for 24 hrs followed by H2O2 addition measured after 24 hrs by annexin V-FITC/propidium iodide staining-based flow cytometric method (reference value: 3.47%)", "format": "functional"}, "PC-12 [15]": {"tested_on": "PC-12", "assay": "Cytoprotective activity against H2O2-induced oxidative damage in rat PC12 cells assessed as late apoptotic cells at 2.5 uM preincubated for 24 hrs followed by H2O2 addition measured after 24 hrs by annexin V-FITC/propidium iodide staining-based flow cytometric method (reference value: 10.7%)", "format": "functional"}, "[16]": {"target": "T1, Nuclear factor erythroid 2-related factor 2 (Rattus norvegicus)", "assay": "Induction of Nrf2 nuclear translocation in rat PC12 cells at 10 uM after 6 hrs by DAPI staining-based immunofluorescence method", "format": "cell-based"}, "PC-12 [17]": {"tested_on": "PC-12", "assay": "Cytoprotective activity against H2O2-induced oxidative damage in rat PC12 cells assessed as early apoptotic cells at 5 uM preincubated for 24 hrs followed by H2O2 addition measured after 24 hrs by annexin V-FITC/propidium iodide staining-based flow cytometric method (reference value: 0.558%)", "format": "functional"}, "PC-12 [18]": {"tested_on": "PC-12", "assay": "Cytoprotective activity against H2O2-induced oxidative damage in rat PC12 cells assessed as increase in cell viability at 10 uM preincubated for 24 hrs followed by H2O2 addition measured after 24 hrs in presence of GCLC inhibitor BSO by MTT assay", "format": "functional, cell-based"}, "PC-12 [19]": {"tested_on": "PC-12", "assay": "Cytoprotective activity against H2O2-induced oxidative damage in rat PC12 cells assessed as early apoptotic cells at 2.5 uM preincubated for 24 hrs followed by H2O2 addition measured after 24 hrs by annexin V-FITC/propidium iodide staining-based flow cytometric method (reference value: 0.558%)", "format": "functional"}, "[20]": {"target": "T1, Nuclear factor erythroid 2-related factor 2 (Rattus norvegicus)", "assay": "Induction of Nrf2 activity in rat PC12 cells assessed as upregulation of GCLC levels after 24 hrs by Western blot method", "format": "cell-based"}},
  "note": "The source made the active and inactive calls. No cut-off for these calls is given here.",
  "data": [
    {"molecule": "CC1=NN(c2ccccc2)C(=O)C1", "note": "[EDARAVONE]", "values": [
      {"measurement": "viability at 10 µM", "setting": "PC-12 [1]", "result": 95.1, "unit": "%"},
      {"measurement": "Activity", "setting": "PC-12 [2]", "result": 1.17, "unit": "%"},
      {"measurement": "Activity", "setting": "PC-12 [3]", "result": 1.85, "unit": "%"},
      {"measurement": "Activity", "setting": "PC-12 [4]", "result": 1.92, "unit": "%"}
    ]},
    {"molecule": "CCC(=O)N1NC(c2cc(OC)c(OC)c(OC)c2)C2=C1CCC2", "note": "(stereo not drawn)", "values": [
      {"measurement": "Activity", "setting": "PC-12 [5]", "result": "Dose-dependent effect"},
      {"measurement": "Activity", "setting": "PC-12 [6]", "result": "Dose-dependent effect"},
      {"measurement": "Activity", "setting": "[7]", "result": "Active"},
      {"measurement": "fold change (FC)", "setting": "[8]", "result": 0.5},
      {"measurement": "fold change (FC)", "setting": "[9]", "result": 0.5},
      {"measurement": "viability at 10 µM", "setting": "PC-12 [1]", "result": 93.1, "unit": "%"},
      {"measurement": "viability at 2.5 µM", "setting": "PC-12 [10]", "result": 94.2, "unit": "%"},
      {"measurement": "Activity", "setting": "PC-12 [2]", "result": 1.64, "unit": "%"},
      {"measurement": "Activity", "setting": "PC-12 [11]", "result": 1.46, "unit": "%"},
      {"measurement": "viability at 5 µM", "setting": "PC-12 [12]", "result": 93.5, "unit": "%"},
      {"measurement": "Activity", "setting": "PC-12 [13]", "result": 2.44, "unit": "%"},
      {"measurement": "Activity", "setting": "PC-12 [14]", "result": 1.69, "unit": "%"},
      {"measurement": "Activity", "setting": "PC-12 [15]", "result": 2.65, "unit": "%"},
      {"measurement": "Activity", "setting": "[16]", "result": "Active"},
      {"measurement": "Activity", "setting": "PC-12 [3]", "result": 2.96, "unit": "%"},
      {"measurement": "Activity", "setting": "PC-12 [4]", "result": 2.27, "unit": "%"},
      {"measurement": "Activity", "setting": "PC-12 [17]", "result": 2.64, "unit": "%"},
      {"measurement": "Activity", "setting": "PC-12 [18]", "result": "inactive"},
      {"measurement": "Activity", "setting": "PC-12 [19]", "result": 1.46, "unit": "%"},
      {"measurement": "Activity", "setting": "[20]", "result": "Dose-dependent effect"}
    ]},
    {"molecule": "CC(C)(C)c1cc(O)ccc1O", "note": "[E319]", "values": [
      {"measurement": "viability at 10 µM", "setting": "PC-12 [1]", "result": 97.1, "unit": "%"},
      {"measurement": "Activity", "setting": "PC-12 [2]", "result": 1.1, "unit": "%"},
      {"measurement": "Activity", "setting": "PC-12 [3]", "result": 0.882, "unit": "%"},
      {"measurement": "Activity", "setting": "PC-12 [4]", "result": 0.882, "unit": "%"}
    ]}
  ]
}
